Source: patent US20100075907A1, “NEUROMEDIN U RECEPTOR AGONISTS AND USES THEREOF” (priority 2006, published 2010)
Non-standard residues stand in square brackets, D forms with d. Residues, ends and D or L forms follow the SMILES beside them. No end group written: not given here. hArg = N=C(N)NCCCC[C@H](N)C(=O)O; dNle = CCCC[C@@H](N)C(=O)O

Biological target: hNMUR2 (Homo sapiens, UniProt Q9GZQ4)
Assay: 125I-hNMU-25 binding assay, human NMUR2 membranes
Design: expressed in transfected cells; host or cells: HEK-293 FLP-In cells (pcDNA5); HEK-293/aeq17 lines (pcDNA3.1) were also made; % inhibition of NMU-25 binding / % Activity: concentration or dose not given beside the values
Procedure: Confluent cell monolayers expressing NMU receptors (the HEK cells described above) were harvested with phosphate buffered saline, collected by centrifugation, and resuspended in membrane buffer (50 mM TrisCl pH 7.4, 5 mM MgCl2, 1× Protease Inhibitor Cocktail, 10 μM phosphoramidon). After the cell pellet was homogenized, the solution was centrifuged at 18,000 rpm for 20 minutes at 4° C. The pellet was resuspended in membrane buffer to yield a final concentration of 0.5-5 μg/μL of membrane and stored at −80° C.
Experiments were performed in assay buffer (25 mM TrisCl, pH 7.4, 10 mM MgCl2, 2 mM EDTA, 1× Protease Inhibitor Cocktail, 100 μg/mL Bacitricin, 10 μM phosphoramidon) in 200 μL volumes in a 96-well format using 2-5 μg of membrane and 0.1 nM ^125I-hNMU-25 (about 12,000 cpm/well). For non-specific binding, 1 μM hNMU-25 was added. About 5 μL of peptides were added to measure antagonist activity, and the entire reaction was incubated at room temperature with shaking for 80 minutes. The reaction was terminated by rapid filtration through 0.3% poly-ethylenimine presoaked Millipore 96-well filter plates and washed with ice-cold buffer (5 mM TrisCl pH 7.4, 10 mM MgCl2, 2.5 mM EDTA, 0.04% Triton X-100). Plates were air-dried overnight at room temperature and recovered radioactivity was determined by standard scintillation counting. IC50 values were determined using GraphPad Prism software.
Concentration-response curves and radioligand-binding data were fitted using Prism (GraphPad Software). Results are summarized below in Tables 8 and 9.

hNMUR2, sequence (Q9GZQ4 whole entry): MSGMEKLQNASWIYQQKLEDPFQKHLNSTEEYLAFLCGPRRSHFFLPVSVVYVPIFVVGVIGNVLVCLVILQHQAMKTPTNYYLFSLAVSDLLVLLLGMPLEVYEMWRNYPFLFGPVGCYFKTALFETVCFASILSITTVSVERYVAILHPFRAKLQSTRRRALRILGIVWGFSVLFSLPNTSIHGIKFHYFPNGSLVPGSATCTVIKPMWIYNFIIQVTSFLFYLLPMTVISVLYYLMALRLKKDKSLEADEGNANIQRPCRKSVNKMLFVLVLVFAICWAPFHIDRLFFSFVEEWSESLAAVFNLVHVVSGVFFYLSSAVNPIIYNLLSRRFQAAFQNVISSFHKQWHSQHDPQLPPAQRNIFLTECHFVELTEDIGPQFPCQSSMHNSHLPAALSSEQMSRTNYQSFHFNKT

Molecule | % Activity (Table 9, HEK-hR2, binding) | % Activity (Table 8, HEK-hR2, binding) | IC50 (Table 8, HEK-hR2, binding) | also measured
H-FRVDEEFQSPFASQSRGYFLFRPRN-NH2 [hNMU-25, reference compound] | 100% |  |  | IC50 (binding, human R2): 0.056 nM
H-FRVDEEFQSPFASQSRGYFWRPRN-NH2 [Agonist G] |  | 33% |  | 
CCCC[C@@H](NC(=O)[C@H](CCCNC(=N)N)NC(=O)[C@H](C)NC(=O)[C@H](CCCNC(=N)N)NC(=O)[C@H](Cc1ccccc1)NC(=O)[C@H](CC(C)C)NC(=O)[C@H](Cc1ccccc1)NC(=O)[C@@H](N)Cc1c[nH]c2ccccc12)C(N)=O [Agonist K, WFLFRAR-(D-Nle)-CONH2] (H-WFLFRAR[dNle]-NH2) | 100% |  |  | 
CC(=O)N[C@@H](Cc1ccccc1)C(=O)N[C@H](CC(C)C)C(=O)N[C@@H](Cc1c[nH]c2ccccc12)C(=O)N[C@@H](CCCNC(=N)N)C(=O)N1CCC[C@H]1C(=O)N[C@@H](CCCNC(=N)N)C(=O)N[C@@H](CC(N)=O)C(N)=O [Agonist E, Ac-F-(D-L)-WRPRN-CONH2] (Ac-F[dL]WRPRN-NH2) |  | 5% | > 1000 nM | 
CC(C)C[C@H](NC(=O)[C@H](Cc1c[nH]c2ccccc12)NC(=O)[C@H](Cc1ccccc1)NC(=O)CNC(=O)[C@H](CCCNC(=N)N)NC(=O)[C@H](CO)NC(=O)[C@H](CCC(N)=O)NC(=O)[C@H](CO)NC(=O)[C@H](C)NC(=O)[C@H](Cc1ccccc1)NC(=O)[C@@H]1CCCN1C(=O)[C@H](CO)NC(=O)[C@H](CCC(N)=O)NC(=O)[C@H](Cc1ccccc1)NC(=O)[C@H](CCC(=O)O)NC(=O)[C@H](CCC(=O)O)NC(=O)[C@H](CC(=O)O)NC(=O)[C@@H](NC(=O)[C@H](CCCNC(=N)N)NC(=O)[C@@H](N)Cc1ccccc1)C(C)C)C(=O)N[C@@H](Cc1ccccc1)C(=O)N[C@@H](CCCNC(=N)N)C(=O)N[C@@H](C)C(=O)N[C@@H](CCCCNC(=N)N)C(=O)N[C@@H](CC(N)=O)C(N)=O [Agonist P] (H-FRVDEEFQSPFASQSRGFWLFRA[hArg]N-NH2; N-terminus assumed) | 81% |  |  | IC50 (Table 9, HEK-hR2, binding): 150 nM
CC(C)C[C@H](NC(=O)[C@H](Cc1c[nH]c2ccccc12)NC(=O)[C@H](Cc1ccccc1)NC(=O)CNC(=O)[C@H](CCCNC(=N)N)NC(=O)[C@H](CO)NC(=O)[C@H](CCC(N)=O)NC(=O)[C@H](CO)NC(=O)[C@H](C)NC(=O)[C@H](Cc1ccccc1)NC(=O)[C@@H]1CCCN1C(=O)[C@H](CO)NC(=O)[C@H](CCC(N)=O)NC(=O)[C@H](Cc1ccccc1)NC(=O)[C@H](CCC(=O)O)NC(=O)[C@H](CCC(=O)O)NC(=O)[C@H](CC(=O)O)NC(=O)[C@@H](NC(=O)[C@H](CCCNC(=N)N)NC(=O)[C@@H](N)Cc1ccccc1)C(C)C)C(=O)N[C@@H](Cc1ccccc1)C(=O)N[C@@H](CCCNC(=N)N)C(=O)N1CCC[C@H]1C(=O)N[C@@H](CCCCNC(=N)N)C(=O)N[C@@H](CC(N)=O)C(N)=O [Agonist O] (H-FRVDEEFQSPFASQSRGFWLFRP[hArg]N-NH2; N-terminus assumed) | 92% |  |  | IC50 (Table 9, HEK-hR2, binding): 3 nM
C[C@@H](NC(=O)[C@H](Cc1ccccc1)NC(=O)[C@@H](N)Cc1ccc(O)cc1)C(=O)N[C@@H](Cc1c[nH]c2ccccc12)C(=O)N[C@@H](CCCNC(=N)N)C(=O)N1CCC[C@H]1C(=O)N[C@@H](CCCNC(=N)N)C(=O)N[C@@H](CC(N)=O)C(N)=O [Agonist D, YF-(D-A)-WRPRN-CONH2] (H-YF[dA]WRPRN-NH2; N-terminus assumed) |  | 0% | > 1000 nM | 
H-FWLFRARN-NH2 [Agonist L] | 100% |  |  | 
CCCC[C@@H](NC(=O)[C@H](CCCNC(=N)N)NC(=O)[C@@H]1CCCN1C(=O)[C@H](CCCNC(=N)N)NC(=O)[C@H](Cc1ccccc1)NC(=O)[C@H](CC(C)C)NC(=O)[C@H](Cc1c[nH]c2ccccc12)NC(=O)[C@H](Cc1ccccc1)NC(=O)CNC(=O)[C@H](CCCNC(=N)N)NC(=O)[C@H](CO)NC(=O)[C@H](CCC(N)=O)NC(=O)[C@H](CO)NC(=O)[C@H](C)NC(=O)[C@H](Cc1ccccc1)NC(=O)[C@@H]1CCCN1C(=O)[C@H](CO)NC(=O)[C@H](CCC(N)=O)NC(=O)[C@H](Cc1ccccc1)NC(=O)[C@H](CCC(=O)O)NC(=O)[C@H](CCC(=O)O)NC(=O)[C@H](CC(=O)O)NC(=O)[C@@H](NC(=O)[C@H](CCCNC(=N)N)NC(=O)[C@@H](N)Cc1ccccc1)C(C)C)C(N)=O [Agonist Q] (H-FRVDEEFQSPFASQSRGFWLFRPR[dNle]-NH2) | 89% |  |  | 
H-YFGWRPRN-NH2 [Agonist C] |  | 0% | > 1000 nM | 
CC(C)C[C@@H](NC(=O)[C@H](Cc1ccccc1)NC(=O)[C@@H](N)Cc1ccc(O)cc1)C(=O)N[C@@H](Cc1c[nH]c2ccccc12)C(=O)N[C@@H](CCCNC(=N)N)C(=O)N1CCC[C@H]1C(=O)N[C@@H](CCCNC(=N)N)C(=O)N[C@@H](CC(N)=O)C(N)=O [Agonist B, YF-(D-L)-WRPRN-CONH2] (H-YF[dL]WRPRN-NH2) |  | 35% | > 1000 nM | 
Ac-FFRPRN-NH2 [Agonist F, Ac-FFRPRN-CONH2] |  | 12% | > 1000 nM | 
WALFRARN-NH2 [Agonist M] | 71% |  |  | IC50 (Table 9, HEK-hR2, binding): 180 nM
CC(C)C[C@H](NC(=O)[C@H](Cc1ccccc1)NC(=O)[C@@H](N)Cc1ccc(O)cc1)C(=O)N[C@@H](Cc1ccccc1)C(=O)N[C@@H](CCCNC(=N)N)C(=O)N1CCC[C@H]1C(=O)N[C@@H](CCCNC(=N)N)C(=O)N[C@@H](CC(N)=O)C(N)=O [NMU-8, reference compound] | 100% |  |  | 
CC(C)C[C@H](NC(=O)[C@H](Cc1c[nH]c2ccccc12)NC(=O)[C@@H](N)Cc1ccccc1)C(=O)N[C@@H](Cc1ccccc1)C(=O)N[C@@H](CCCNC(=N)N)C(=O)N[C@@H](C)C(=O)N[C@@H](CCCCNC(=N)N)C(=O)N[C@@H](CC(N)=O)C(N)=O [Agonist J, FWLFRA-(Harg)-N-CONH2] (H-FWLFRA[hArg]N-NH2) | 63% |  |  | IC50 (Table 9, HEK-hR2, binding): 150 nM
CC(C)C[C@H](NC(=O)[C@H](Cc1c[nH]c2ccccc12)NC(=O)[C@@H](N)Cc1ccccc1)C(=O)N[C@@H](Cc1ccccc1)C(=O)N[C@@H](CCCNC(=N)N)C(=O)N1CCC[C@H]1C(=O)N[C@@H](CCCCNC(=N)N)C(=O)N[C@@H](CC(N)=O)C(N)=O [Agonist I, FWLFRP-(Harg)-N-CONH2] (H-FWLFRP[hArg]N-NH2) | 90% |  |  | 
YFWRPRN-NH2 [Agonist A, YFWRPRN-CONH2] |  | 0% | > 1000 nM | 
FALFRPRN-NH2 [Agonist N] | 100% |  |  | 
